The subject of data set [1] is LNCaP tumors. As to the kind of experiment: SPECT/CT imaging of radioactivity within tumors after injection. Type of data set: in vivo, mice. The conditions noted are these: for activity concentration in tumor (imaging): mean of group, LNCaP tumors in mice. The protocol:
In this animal study, three groups of mice were implanted with LNCaP tumors (in Matrigel) with 6-8 tumors per group. After the tumors were established, one group was injected with J591-Lu^177, a 2nd group with PSMA-617-Lu^177 and a 3rd group got both PSMA617-Lu^177 and J591-Lu^177.
Radiolabeling both PSMA-617 and J591 allowed both to be tracked individually as well as their total when combined. All mice were imaged in a Siemens Inveon dedicated animal multimodality SPECT/CT. Coaxial CT images were acquired for anatomical and attenuation information prior to each SPECT acquisition to measure the radioactivity within the tumors at the 1, 4, 24 and 72 hour time points after injection. SPECT images were reconstructed using the Siemens OSEM algorithm with corrections for scatter, attenuation, decay, and ^177Lu emission spectrum. The mean number of counts within the tumors in each group and time point was calculated and plotted. THe imaging data measured an activity concentration in Bq/mL of tumor: […]

For data set [2], the system named is LNCaP tumors. As to the kind of experiment: Tumor harvest at necropsy and direct scintillation counting of tumor radioactivity. It counts as in vivo, mice. As to conditions: Day 3 (72 hours) tumor harvest. An excerpt:
The dotted line represents the summation of the counts in the 617-Lu^177 plus the J591-Lu^177 tumors. […] To confirm the accuracy of this experiment which was based on […] imaging, determinations were done by tumor harvest at necropsy followed by direct counting of the radioactivity within the previously imaged tumors and calculating counts per mg of tumor.
At the Day 3 tumor harvest, the mean counts per mg tumor in each of the groups is shown in the table below (and FIG. 2) further confirming the imaging results.
In this animal study, which is a continuation of the imaging study described in Example 1, when the imaging was completed at 72 hours, the animals were necropsied, the tumors harvested, weighed and counted in a scintillation counter to derive the amount of radioactivity per mg (cpm/mg) of tumor. The tumors treated with J591-Lu^177 had 2.2-fold the counts of those tumors that had gotten PSMA-617-Lu^177 alone (FIG. 2). The tumors treated with the combination had counts 48% greater than the sum of each of its individual components, meeting the definition of synergy (FIG. 2). The physical counting of the tumor radioactivity confirmed the results obtained by imaging.

With `O=C(O)CC[C@H](NC(=O)N[C@@H](CCCCNC(=O)[C@H](Cc1ccc2ccccc2c1)NC(=O)[C@H]1CC[C@H](CNC(=O)CN2CCN(CC(=O)O)CCN(CC(=O)O)CCN(CC(=O)O)CC2)CC1)C(=O)O)C(=O)O` [PSMA-617-Lu^177], in the data set on LNCaP tumors [1] (1 to 72 hour, LNCaP tumors), the “course of tumor counts over time (imaging, in words)” value is “high uptake at 1 hour that then diminished over time”. The “activity concentration in tumor (imaging)” value amounted to 29.55 Bq/mL in the data set on LNCaP tumors [1] (1 hr after injection), 30.62 Bq/mL in the data set with LNCaP tumors [1] (4 hr after injection), 27.1 Bq/mL in the data set with LNCaP tumors [1] (24 hr after injection) and 12.48 Bq/mL in the data set with LNCaP tumors [1] (72 hr after injection). Further, the Mean cpm/mg tumor in the data set with LNCaP tumors [2] worked out at 7.536 cpm/mg.

For the origin of these results see patent publication US20240000979A1, “METHODS AND COMPOSITIONS FOR SYNERGISTIC UPTAKE AND RETENTION OF SMALL MOLECULE LIGANDS” (CORNELL UNIVERSITY, priority 2020, published 2024).
